Consider three molecules from paper PMC9379910, “Chimeric Ligands of Pili and Lectin A Inhibit Tolerance, Persistence, and Virulence Factors of Pseudomonas aeruginosa over a Wide Range of Phenotypes” (ACS Infectious Diseases, 2022).

For orientation: IC50 means the concentration needed to halve the response being measured. A lower IC50 goes with greater potency. One may read the Kd as a measure of binding affinity in units of concentration. The low end stands for tighter binding, the high end for weaker binding.

Assay [1] addresses T1, LecA (Pseudomonas aeruginosa, UniProt Q05097). The assay is described as follows: competitive fluorescence polarization (displacement of βGal-aryl-Dansyl from […] LecA); also motility-enabled binding assay. On the technique in general: In fluorescence polarisation assays a small probe gives low polarisation when free and higher when bound to something large.
Assay [2] concerns the target T1, LecA. The assay is described as follows: competitive fluorescence polarization (displacement of βGal-aryl-Dansyl from […] LecA). It counts as binding.
The target of assay [3] is T1, LecA. Briefly: direct fluorescence polarization titration with LecA ([…]). It counts as binding.

T1 sequence (Q05097 2-122): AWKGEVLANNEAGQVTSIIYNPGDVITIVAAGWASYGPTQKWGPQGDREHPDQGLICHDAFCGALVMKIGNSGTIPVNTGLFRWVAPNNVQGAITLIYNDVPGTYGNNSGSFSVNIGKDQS

As to `CCCCCCCC(C)CC(C)CCO[C@@H]1O[C@H](CO)[C@@H](O[C@H]2O[C@H](CO)[C@@H](O)[C@H](O)[C@H]2O)[C@H](O)[C@H]1O` (stereo partly drawn) [1a, 3,5-diMeDβM], the concentration for half-maximal inhibition (IC50) on LecA [1] stood at 15 µM. In the case of `CCCCCCCC(C)CC(C)CCO[C@@H]1O[C@H](CO)[C@@H](O[C@@H]2O[C@H](CO)[C@@H](O)[C@H](O)[C@H]2O)[C@H](O)[C@H]1O` (stereo partly drawn) [1b, 3,5-diMeDβC], the IC50 on LecA [2] worked out at 13 µM. Take `CN(C)c1cccc2c(S(=O)(=O)Nc3ccc(O[C@@H]4O[C@H](CO)[C@H](O)[C@H](O)[C@H]4O)cc3)cccc12` [βGal-aryl-Dansyl]: the Kd at LecA [3] is around 10.7 µM.
